Experiments:
laboratory rats = test: Efficacy for general anesthesia in rats (i.v. tail vein), with mortality; assay type: in vivo, female CD laboratory rats; details: 20-21 mg/kg
Method: Diprivan® (Diprivan® 1%, Injection propofol, 10 mg/ml, Emulsion for I.V. Administration, Stuart Pharmaceuticals) was purchased. It is described by the manufacturer as a sterile, nonpyrogenic emulsion containing 10 mg/mL propofol, 100 mg/ml soybean oil, 12 mg/mL lecithin in an aqueous vehicle. It was maintained at room temperature as described by the manufacturer. Samples were taken using aseptic technique.
Lecithin-coated propofol microdroplets containing 6.8% propofol and Diprivan® were injected into the tail veins of 150 gram female CD laboratory rats (Charles River Laboratories, Wilmington, Mass.) restrained in a Decapicone® (Braintree Scientific, Braintree, Mass.). The volumes of 6.8% (w/v) microdroplet propofol injected were 10, 20, 30 or 50 μL. The injections were accomplished in 2-3 seconds. Volumes of 1% Diprivan® injections were 100, 200, 300 or 500 μL. The injections were accomplished in 5-15 seconds. The animals were observed during the injections, and the time required for loss of consciousness ("time to unconsciousness") was recorded. Then the animals were removed from the Decapicone® and placed on their sides and were tested for startle response to a loud clap. […] The time to regain startle response ("time to startle response") was recorded. The time to recover the righting response, indicated by spontaneous attempt to stand, was also measured. […]

[1] = cited from earlier work
[2] = pure oily state; cited from earlier work

CC(C)c1cccc(C(C)C)c1O [Propofol, 2,6-diisopropylphenol]
Mortality (in words) (laboratory rats): significant mortality
Water solubility [1]: water-insoluble
Irritancy [2]: irritant

From US5637625A, “Propofol microdroplet formulations” (Research Triangle Pharmaceuticals Ltd., priority 1996, dated 1997)
